According to patent US20050257279A1, “Agouti-related protein deficient cells, non-human transgenic animals and methods of selecting compounds which regulate energy metabolism” (priority 2002, published 2005):
Entries after “also recorded” stand apart in the source; their conditions may differ.

Assays:
[1] = test system: primary cultures of rat anterior pituitary cells; test: Rat pituitary growth hormone (GH) release; assay type: cell-based; details: 15 min incubation
Method: Rat Pituitary Growth Hormone (GH) Release: Compound functional activity was evaluated by measuring growth hormone secretion from primary cultures of rat anterior pituitary cells (Small, et al., (1998) Regulatory Peptides 75-76 and 301-307). Cells were isolated from rat pituitaries by enzymatic digestion with 250 μg/mL DNAse 1 and 0.5% trypsin in Hanks' balanced salt solution. The cells were suspended in culture medium and adjusted to a concentration of 1.5×10^5 cells/ml and 1.0 ml of this suspension was placed in each well of a 24-well tray. Cells were maintained in a humidified 5% CO2/95% air atmosphere at 37° C. for 3-4 days. The culture medium consisted of DMEM containing 0.37% NaHCO3, 10% horse serum, 2.5% fetal bovine serum, 1% nonessential amino acids, 1% glutamine, 1% nystatin, and 0.1% gentamicin. Before testing compounds for their capacity to […] GH release, cells were washed twice 1.5 hr before and once more immediately before the start of the experiment with the above culture medium containing 25 mM Hepes (pH 7.4). Compounds were tested in quadruplicate by adding them in 1 ml of fresh medium to each well and incubating them at 37° C. for 15 minutes followed by centrifugation at 2000×g for 15 min to remove any cellular material. The supernatant fluid was assayed for GH by a double antibody radioimmunoassay.

[2] = 4-hour light-phase food intake in mice; assay type: in vivo; details: human ghrelin 3 μmole/kg i.p.
Text: Mice were individually housed at approximately one month of age. Regular mouse chow (Teklad 7012: 5.67% kcal from fat; 3.41 kcal/g, Harlan Teklad) was provided as pellet food in wire cage tops containing food hoppers.
Food intake values were reported as means ± standard errors of the means, and analyzed by the two tailed, unpaired Student t test. P values of <0.05 were reported as significant.

SMILES: CCCCCCCC(=O)OC[C@H](NC(=O)[C@H](CO)NC(=O)CN)C(=O)N[C@@H](Cc1ccccc1)C(=O)N[C@@H](CC(C)C)C(=O)N[C@@H](CO)C(=O)N1CCC[C@H]1C(=O)N[C@@H](CCC(=O)O)C(=O)N[C@@H](Cc1c[nH]cn1)C(=O)N[C@@H](CCC(N)=O)C(=O)N[C@@H](CCCNC(=N)N)C(=O)N[C@H](C(=O)N[C@@H](CCC(N)=O)C(=O)N[C@@H](CCC(N)=O)C(=O)N[C@@H](CCCNC(=N)N)C(=O)N[C@@H](CCCCN)C(=O)N[C@@H](CCC(=O)O)C(=O)N[C@@H](CO)C(=O)N[C@@H](CCCCN)C(=O)N[C@@H](CCCCN)C(=O)N1CCC[C@H]1C(=O)N1CCC[C@H]1C(=O)N[C@@H](C)C(=O)N[C@@H](CCCCN)C(=O)N[C@@H](CC(C)C)C(=O)N[C@@H](CCC(N)=O)C(=O)N1CCC[C@H]1C(=O)N[C@@H](CCCNC(=N)N)C(=O)O)C(C)C [Ghrelin]
- EC50 [1]: 0.7 nM
- effect on 4-hour food intake ([2]; Agrp-/-, Npy-/- double knockout mice): no effect; also recorded: without effect
- stimulation of 4-hour food intake ([2]; wild-type control mice, ad libitum fed, relative to saline): 120%
- effect on 4-hour food intake ([2]; wild-type mice, relative to saline): stimulated 4-hour food intake
